# Source: publication PMC2737144, “Characterization of an Enantioselective Odorant Receptor in the Yellow Fever Mosquito Aedes aegypti” (PLoS ONE, 2009)
# Target: T1, AaOR8/AaOR7 protein complex (Aedes aegypti, UniProt Q16MN0)
# T1 sequence (Q16MN0 32-422): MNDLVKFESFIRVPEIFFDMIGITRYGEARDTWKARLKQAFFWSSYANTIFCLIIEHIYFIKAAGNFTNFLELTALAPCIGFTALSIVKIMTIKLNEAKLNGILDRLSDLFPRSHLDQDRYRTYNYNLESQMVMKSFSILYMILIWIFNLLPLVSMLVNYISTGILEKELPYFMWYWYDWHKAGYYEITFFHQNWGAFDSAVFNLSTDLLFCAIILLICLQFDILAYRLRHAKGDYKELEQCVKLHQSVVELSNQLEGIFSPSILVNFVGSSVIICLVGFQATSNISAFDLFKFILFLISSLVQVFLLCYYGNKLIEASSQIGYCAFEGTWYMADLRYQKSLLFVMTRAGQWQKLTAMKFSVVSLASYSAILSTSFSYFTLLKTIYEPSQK
# T1 sequence (Q178U6 1-478 partner): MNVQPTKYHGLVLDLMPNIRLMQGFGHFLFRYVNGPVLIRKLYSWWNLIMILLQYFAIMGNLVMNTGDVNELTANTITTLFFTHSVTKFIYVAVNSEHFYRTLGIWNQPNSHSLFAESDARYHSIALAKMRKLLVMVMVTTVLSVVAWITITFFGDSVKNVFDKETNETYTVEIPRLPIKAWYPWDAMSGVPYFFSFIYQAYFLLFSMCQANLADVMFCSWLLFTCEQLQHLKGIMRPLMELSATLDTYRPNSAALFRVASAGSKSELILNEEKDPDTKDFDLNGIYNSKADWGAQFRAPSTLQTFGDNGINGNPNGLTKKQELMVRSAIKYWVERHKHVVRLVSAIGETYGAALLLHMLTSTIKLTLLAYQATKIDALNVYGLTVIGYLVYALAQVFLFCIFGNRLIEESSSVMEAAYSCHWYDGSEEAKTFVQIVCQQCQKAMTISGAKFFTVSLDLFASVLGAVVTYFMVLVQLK
# Test: Two-microelectrode voltage clamp of Xenopus oocytes co-expressing AaOr8 and AaOr7; odorant-induced whole-cell currents
# Format: cell-based
# Conditions: Xenopus oocytes co-expressing AaOR8 and AaOR7, holding potential −80 mV, 8 sec odorant exposure, non-linear regression curve fit; read-out: EC50 (half maximal effective concentration) of AaOR8
# Method: Along with AaOr8, we co-expressed AaOr7 in Xenopus oocytes and electrophysiological responses (Fig. 1B) to each enantiomer were measured using the two-microelectrode voltage clamp technique. […] We established the concentration-response relationships for each compound (Fig. 1C) and their associated half maximal effective concentration (EC50) as a sensitivity criterion. […] Part of the response to the (S)-(+)-enantiomer may have been caused by the presence of trace amounts (1 part per thousand) of the (R)-(—)-enantiomer (see Material & Methods).
# AaOr7 and AaOr8 cRNAs were synthesized from linearized pSP64DV expression vectors (Dr. Zwiebel, Vanderbilt University) using the mMESSAGE mMACHINE SP6 kit (Ambion). Following mechanical disruption of the Xenopus ovaries, stage […] oocytes were treated for 30 min at room temperature under 150 rpm shaking with a 2 mg/mL collagenase (SIGMA, C6895) solution in OR-2 buffer (5 mM HEPES, 1 mM Na2HPO4, 82.5 mM NaCl, and 2.5 mM MgCl2 [pH 7.6]). All procedures were performed in accordance with the NIH Institutional Animal Care and Use Committee and NIH guidelines. Oocytes were subsequently washed 5 times with OR-2 buffer, 5 times with MBSH buffer (10 mM HEPES, 2.4 mM NaHCO3, […], 1 mM KCl, 0.82 mM MgSO4, 0.41 mM CaCl2 and 0.33 mM (CaNO3)2, [pH 7.6]), 5 times with MBSH supplemented with 50 µg/ML gentamycin and 5 times with Ringer's buffer (96 mM NaCl, 2 mM KCl, 5 mM MgCl2, 6H2O, 5 mM HEPES and 0.8 mM CaCl2 [pH 7.6]) supplemented with 5% heat-inactivated horse serum, 50 µg/mL tetracycline, 100 µg/mL streptomycin and 550 µg/mL sodium pyruvate. Individual oocytes were allowed to recover overnight prior to injection with 10 ng of each cRNA and were recorded 4 to 6 days post-injection.
# Whole-cell currents were recorded using the two-microelectrode voltage clamp technique, [58]. Odorants were dissolved in dimethyl sulfoxide (DMSO) at a 1∶10 ratio so that stock solutions could be made. Prior to recording, stock solutions were diluted in Ringer's solution [pH 7.6] (96 mM NaCl, 2 mM KCl, 5 mM MgCl2, 5 mM HEPES and 0.8 mM CaCl2) to the indicated concentrations before being applied to Xenopus oocytes in a RC-3Z oocyte recording chamber (Warner Instruments). Oocytes were continuously perfused by either pure Ringer's solution or exposed for 8 sec to serial dilutions of odorants dissolved in Ringer's solution. Odorant-induced currents were recorded with an OC-725C oocyte clamp (Warner Instruments) at a holding potential of −80 mV. Between stimulations, oocytes were allowed to return to their membrane resting potential by washing out the odorants using pure Ringer's solution. Data acquisition and analysis were carried out with Digidata 1440A and pCLAMP10 software (Axon Instruments).
# Statistical analyses (GraphPad Prism5 Software, Inc.) of the logEC50 means were performed using an ordinary one-way ANOVA in conjunction with the Tukey Kramer multiple comparison post test (95% confidence interval). […] In all figures, graphical results are shown as means and standard error of the mean for a minimum of six independent oocytes. EC50 values for individual compounds were extrapolated using the non-linear regression curve fit function provided in Prism5.
row,SMILES,EC50 [µM]
1,C=CC(O)CCCC (stereo not drawn) [1-Hepten-3-ol],17
2,C=CC(O)CCCCCC (stereo not drawn) [1-Nonen-3-ol],5.14
3,C=CC(=O)CCCCC [1-Octen-3-one],23
4,C=CCC(O)CCCC (stereo not drawn) [1-Octen-4-ol],39.1
5,CCCCCC(O)CC (stereo not drawn) [3-Octanol],5.82
6,C=C[C@H](O)CCCCC [(R)-(—)-1-octen-3-ol],0.158
7,C=C[C@@H](O)CCCCC [(S)-(+)-1-octen-3-ol],17.2

# System: Bombyx mori OR1 (BmOR1)
# Test: not given
# Conditions: oocyte expression system; cited from earlier work
row,SMILES,concentration range of BmOR1 response
1,CCC/C=C\C=C\CCCCCCCCCO [bombykol],micromolar range

# System: Apis mellifera OR11 (AmOR11)
# Test: not given
# Conditions: Xenopus oocytes; cited from earlier work
row,SMILES,concentration range of AmOR11 response
1,CC(=O)CCCCCC=CC(=O)O [9-oxo-2-decenoic acid],nanomolar range
